Measurements taken from the supplement of paper PMC10331698.
± gives the standard deviation of the averaged measurements.

How the values were obtained:
Assay in all cases: LOEC (log10 uM (lowest observed effect concentration))
[1] = compound: O=C(O)C(F)(OC(F)(F)C(F)(F)C(F)(F)F)C(F)(F)F [Ammonium perfluoro-2-methyl-3-oxahexanoate]
Protocol: (§1)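 BioMAP Diversity Plus panel in human primary cell co-cultures, 4 concentrations in duplicate blinded samples. Responses are log10 fold change versus DMSO control, processed with tcpl v2.1.0. A hit is called when responses at any concentration exceed the cutoff (the larger of 3*bmad or log10(1.2)); the lowest observed effect concentration (modl_ga, log10 uM) is reported for hits.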

[2] = compound: CCNS(=O)(=O)C(F)(F)C(F)(F)C(F)(F)C(F)(F)C(F)(F)C(F)(F)C(F)(F)C(F)(F)F [N-Ethylperfluorooctanesulfonamide]
Protocol: as §1

[3] = compound: O=C(O)C=C(C(F)(F)F)C(F)(F)F [3,3-Bis(trifluoromethyl)-2-propenoic acid]
Protocol: as §1

[4] = compound: O=C(O)C(F)(F)OC(F)(F)C(F)(F)OC(F)(F)C(F)(F)OC(F)(F)C(F)(F)C(F)(F)C(F)(F)F [Perfluoro-3,6,9-trioxatridecanoic acid]
Protocol: as §1

[5] = compound: NS(=O)(=O)C(F)(F)C(F)(F)C(F)(F)C(F)(F)C(F)(F)C(F)(F)C(F)(F)C(F)(F)F [Perfluorooctanesulfonamide]
Protocol: as §1

Perfluorononanoic acid = compound: O=C(O)C(F)(F)C(F)(F)C(F)(F)C(F)(F)C(F)(F)C(F)(F)C(F)(F)C(F)(F)F [Perfluorononanoic acid]
Protocol: as §1

[6] = compound: OCC(F)(F)OC(F)(F)C(F)(F)OC(F)(F)C(F)(F)OC(F)(F)CO [1H,1H,11H,11H-Perfluorotetraethylene glycol]
Protocol: as §1

Perfluoroundecanoic acid = compound: O=C(O)C(F)(F)C(F)(F)C(F)(F)C(F)(F)C(F)(F)C(F)(F)C(F)(F)C(F)(F)C(F)(F)C(F)(F)F [Perfluoroundecanoic acid]
Protocol: as §1

[7] = compound: O=S(=O)(O)CCC(F)(F)C(F)(F)C(F)(F)C(F)(F)C(F)(F)C(F)(F)C(F)(F)C(F)(F)F [8:2 Fluorotelomer sulfonic acid]
Protocol: as §1

[8] = compound: C[C@@H]1C[C@H]2[C@@H]3CCC4=CC(=O)C=C[C@]4(C)[C@@]3(F)[C@@H](O)C[C@]2(C)[C@@]1(O)C(=O)COP(=O)(O)O [Dexamethasone sodium phosphate]
Protocol: as §1

[9] = compound: O=S(=O)(O)C(F)(F)C(F)(F)C(F)(F)C(F)(F)C(F)(F)C(F)(F)C(F)(F)F [Perfluoroheptanesulfonic acid]
Protocol: as §1

[10] = compound: OCCC(F)(F)C(F)(F)C(F)(F)C(F)(F)F [4:2 Fluorotelomer alcohol]
Protocol: as §1

[11] = compound: O=S(=O)(O)C(F)(F)C(F)(F)OC(F)(F)C(F)(F)F [Perfluoro(2-ethoxyethane)sulfonic acid]
Protocol: as §1

[12] = compound: O=C(O)CCC(F)(C(F)(F)F)C(F)(F)F [4,4-bis(Trifluoromethyl)-4-fluoropropanoic acid]
Protocol: as §1

[13] = compound: OCC(F)(F)C(F)(F)C(F)(F)C(F)(F)C(F)(F)C(F)(F)CO [1H,1H,8H,8H-Perfluorooctane-1,8-diol]
Protocol: as §1

Test System	LOEC (log10 uM) [2]	LOEC (log10 uM) [3]	LOEC (log10 uM) [4]	LOEC (log10 uM) [5]	LOEC (log10 uM) (Perfluorononanoic acid)	LOEC (log10 uM) (Perfluoroundecanoic acid)	LOEC (log10 uM) [7]	LOEC (log10 uM) [8]	also measured
3C IL8 up	–	–	–	–	–	–	–	–	LOEC (log10 uM) [1]: 1.78
4H Eotaxin3 down	1.54 ± 0.34	1.78	1.78	1.78	1.78	–	–	–	LOEC (log10 uM) [1]: 1.04 ± 1
BE3C HLADR down	1.3	–	0.845	0.845	1.31 ± 0.66	0.573 ± 0.39	1.3	–	LOEC (log10 uM) [6]: 1.78
BE3C IL8 down	1.3	–	0.845	0.845	1.3	0.845	1.78	0.239 ± 0.34	–
BE3C IP10 down	1.07 ± 0.32	–	0.845	0.845	1.3	0.301	1.3	–	LOEC (log10 uM) [6]: 1.78
BE3C MMP1 down	–	–	0.845	–	1.78	0.845	–	0.477 ± 0.68	–
BE3C MMP1 up	1.3	–	–	–	–	–	1.3	–	LOEC (log10 uM) [9]: 1.48; LOEC (log10 uM) [1]: 1.78
BE3C tPA down	1.3	0.801 ± 0.71	0.845	1.78	1.3	0.845	–	0.239 ± 0.34	–
BF4T Eotaxin3 down	0.845	–	0.845	1.3	1.3	0.301	1.54 ± 0.34	–	–
BF4T IL8 up	–	–	–	–	–	–	–	–	LOEC (log10 uM) [9]: 1.48
BF4T tPA down	1.3	1.07 ± 0.32	0.845	1.78	1.54 ± 0.34	0.845	–	–	LOEC (log10 uM) [6]: 1.54 ± 0.34
BT PBMCCytotoxicity down	–	–	–	–	–	–	–	0	–
BT xIL2 down	–	0.845	–	–	–	–	–	0	–
BT xIL6 down	–	–	1.78	1.78	–	–	–	0.716 ± 0.34	LOEC (log10 uM) [6]: 1.78
BT xTNFa up	–	–	–	–	–	–	–	–	LOEC (log10 uM) [10]: 1.31 ± 0.66
CASM3C IL6 down	–	1.07 ± 0.32	–	–	–	–	–	0.239 ± 0.34	–
CASM3C MCP1 down	–	–	–	–	–	–	–	0.477 ± 0.68	–
CASM3C SAA up	–	–	–	–	–	–	–	–	LOEC (log10 uM) [11]: 1.54 ± 0.34; LOEC (log10 uM) [12]: 1.54 ± 0.34
CASM3C Thrombomodulin up	1.78	–	–	1.78	–	–	–	–	LOEC (log10 uM) [1]: 0.845
CASM3C VCAM1 down	1.54 ± 0.34	0.573 ± 0.39	1.78	1.78	–	–	–	–	LOEC (log10 uM) [1]: 1.31 ± 0.66
IMphg CD40 down	1.78	–	1.78	1.3	1.78	–	1.78	–	–

Test System	LOEC (log10 uM) [2]	LOEC (log10 uM) [3]	LOEC (log10 uM) [4]	LOEC (log10 uM) [5]	LOEC (log10 uM) (Perfluorononanoic acid)	LOEC (log10 uM) (Perfluoroundecanoic acid)	LOEC (log10 uM) [7]	LOEC (log10 uM) [8]	also measured
IMphg CD69 down	1.78	–	1.31 ± 0.66	–	1.78	–	1.78	–	–
IMphg ESelectin down	1.54 ± 0.34	1.78	1.3	0.573 ± 0.39	–	–	–	0	–
IMphg ESelectin up	–	–	–	–	–	–	1.78	–	–
IMphg IL8 down	–	–	–	–	–	–	–	0.239 ± 0.34	–
IMphg IL8 up	1.78	1.3	–	–	1.07 ± 0.32	–	–	–	LOEC (log10 uM) [1]: 0.573 ± 0.39
IMphg IL10 down	–	0.845	1.78	1.54 ± 0.34	1.78	–	1.3	0	LOEC (log10 uM) [11]: 1.78; LOEC (log10 uM) [13]: 1.31 ± 0.66; LOEC (log10 uM) [6]: 1.78; LOEC (log10 uM) [9]: 1.48; LOEC (log10 uM) [1]: 0.301
IMphg MCP1 down	1.78	–	1.3	1.54 ± 0.34	–	–	–	0.477	–
IMphg MIP1a down	–	–	1.54 ± 0.34	–	–	–	–	0	–
IMphg VCAM1 down	1.78	1.78	1.78	1.78	1.78	–	–	1.48	–
KF3CT IL1a down	1.78	–	1.3	1.78	0.801 ± 0.71	0.845	1.3	–	–
LPS IL1a down	–	–	1.78	1.78	1.78	-0.427 ± 0.39	1.78	–	–
LPS IL8 up	–	–	–	–	–	–	–	–	LOEC (log10 uM) [11]: 1.54 ± 0.34; LOEC (log10 uM) [1]: 1.54 ± 0.34
LPS PGE2 down	–	–	1.78	–	1.54 ± 0.34	–	1.78	1.22 ± 0.37	–
LPS TNFa down	–	–	1.78	1.78	–	0.845	–	0.954	–
LPS Thrombomodulin up	1.78	–	1.78	–	–	–	1.54 ± 0.34	–	LOEC (log10 uM) [6]: 1.04 ± 1
SAg Eselectin down	1.78	1.3	1.78	1.78	–	–	–	0.716 ± 0.34	LOEC (log10 uM) [6]: 1.78
SAg IL8 down	1.78	1.78	1.3	1.78	1.78	–	–	–	LOEC (log10 uM) [6]: 1.78
hDFCGF MMP1 down	1.78	–	0.845	1.3	–	0.845	–	0.954	–
hDFCGF Proliferation down	1.3	1.78	0.845	1.3	1.54 ± 0.34	0.301	–	–	LOEC (log10 uM) [6]: 1.04 ± 1
hDFCGF VCAM1 down	0.301	1.78	0.845	1.07 ± 0.32	–	0.301	–	–	LOEC (log10 uM) [6]: 1.3
